Where a name gives a salt, the structure may show the parent alone. Read-outs that look alike come from different tables or passages of the source.
Experiments:
[1] = tested on: capsaicin-induced mechanical allodynia; assay: Rat model of capsaicin-induced mechanical allodynia; format: in vivo; settings: sc, read-out: % Inhibition of allodynia
Experimental: Compounds of the present invention may be assayed for their ability to treat fibromylagia—like pain in a rat model of capsaicin-induced mechanical allodynia (e.g., Sluka, K A, (2002) J of Neuroscience, 22(13): 5687-5693). For example, a rat model of capsaicin-induced mechanical allodynia) was be carried out as follows:
On day 0, male Sprague-Dawley rats (˜150 g) in the dark cycle were placed in suspended wire-bottom cages and allowed to acclimate for 0.5 hour in a darkened, quiet room. The day 0 paw withdrawal threshold (PWT) was determined on the left hind paw by Von Frey hair assessment using the Dixon up and down method. After assessment, the plantar muscle of the right hind paw was injected with 100 μl capsaicin (0.25% (w/v) in 10% ethanol, 10% Tween 80, in sterile saline). On day 6 the PWT of the left hindpaw (contralateral from injection site) was determined for each animal. Animals from the day 6 prereads with PWT≦11.7 g were considered allodynic responders and were regrouped so that each cage had similar mean PWT values. On day 7, responders were dosed subcutaneously with 10 mg compound/kg body weight, or with vehicle alone. The vehicle was phosphate buffered saline containing 2% Cremophor® EL (BASF). The contralateral PWT values were determined at 1 hour after the single dose, with the investigator blinded to the dosing scheme.
In addition, the day 6 PWT was subtracted from the day 0 PWT to give the baseline window of allodynia present in each animal.

[2] = molecular target: T1, human serotonin transporter (hSERT) (Homo sapiens, UniProt P31645); assay: hSERT receptor binding, [125I]-RTI-55, HEK-293 membranes
T1 construct: expressed in transfected cells; host or cells: HEK-293, membranes
Experimental: Cell pastes of HEK-293 cells transfected with a human serotonin transporter cDNA were prepared. […] Aliquots of membranes (−2.5 mg/ml protein) were stored in liquid nitrogen until used.
The reaction was incubated and gently agitated for 90 minutes at room temperature, and terminated by removal of assay volume. […] Test compounds were run in duplicate, and specific binding was defined as the difference between binding in the presence and absence of 10 μM citalopram. Excel and GraphPad Prism software were used for data calculation and analysis. IC50 values were converted to Ki values using the Cheng-Prusoff equation.

[3] = molecular target: T2, human norepinephrine transporter (hNET) (Homo sapiens, UniProt P23975); assay: hNET receptor binding, [125I]-RTI-55, HEK-293 membranes; settings: Cheng-Prusoff, read-out: NET Ki
T2 construct: expressed in transfected cells; host or cells: HEK-293, membranes
Experimental: Cell pastes of HEK-293 cells transfected with a human norepinephrine transporter cDNA were prepared. The cell pastes were resuspended in 400 to 700 ml of Krebs-HEPES assay buffer (25 mM HEPES, 122 mM NaCl, 3 mM KCl, 1.2 mM MgSO4, 1.3 mM CaCl2, and 11 mM glucose, pH 7.4) with a Polytron homogenizer at setting 7 for 30 seconds. Aliquots of membranes (5 mg/ml protein) were stored in liquid nitrogen until used.
The binding assay was set up in Beckman deep-well polypropylene plates with a total volume of 250 μl containing: drug (10^−5M to 10^−12M), cell membranes, and […] [^125I]-RTI-55 (Perkin Elmer, NEX-272; specific activity 2200 Ci/mmol). The reaction was incubated by gentle agitation for 90 minutes at room temperature and was terminated by filtration through Whatman GF/C filter plates using a Brandel 96-well plate harvester. Scintillation fluid (100 μl) was added to each well, and bound [^125I]-RTI-55 was determined using a Wallac Trilux Beta Plate Counter. Test compounds were run in duplicate, and specific binding was defined as the difference between binding in the presence and absence of 10 μM desipramine.
Excel and GraphPad Prism software were used for data calculation and analysis. IC50 values were converted to Ki values using the Cheng-Prusoff equation. The Ki values (nM) for the hNET are reported below in Table 1.

[4] = [125I]-RTI-55, HEK-293 membranes, Cheng-Prusoff, read-out: SERT Ki
[5] = male Sprague-Dawley rats, 10 mg/kg subcutaneously, PWT 1 hour after single dose, mean of eight animals, normalized for vehicle

T1 sequence (P31645 whole entry): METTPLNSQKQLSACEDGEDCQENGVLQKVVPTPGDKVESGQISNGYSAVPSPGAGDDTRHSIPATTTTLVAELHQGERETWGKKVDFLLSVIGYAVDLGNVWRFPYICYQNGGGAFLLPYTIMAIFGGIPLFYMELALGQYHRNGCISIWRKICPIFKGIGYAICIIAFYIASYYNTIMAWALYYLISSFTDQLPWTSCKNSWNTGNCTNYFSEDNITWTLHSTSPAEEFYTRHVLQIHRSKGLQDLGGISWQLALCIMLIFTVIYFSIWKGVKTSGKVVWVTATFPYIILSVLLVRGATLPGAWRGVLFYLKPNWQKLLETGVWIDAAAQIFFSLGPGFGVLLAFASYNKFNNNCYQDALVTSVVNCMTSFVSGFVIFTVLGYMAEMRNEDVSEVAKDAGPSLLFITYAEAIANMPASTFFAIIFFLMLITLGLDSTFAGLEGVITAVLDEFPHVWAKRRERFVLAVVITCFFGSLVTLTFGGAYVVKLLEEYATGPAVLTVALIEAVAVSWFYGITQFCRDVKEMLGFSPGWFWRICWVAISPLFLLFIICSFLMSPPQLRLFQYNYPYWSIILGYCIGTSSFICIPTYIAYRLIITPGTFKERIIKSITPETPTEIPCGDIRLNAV
T2 sequence (P23975 whole entry): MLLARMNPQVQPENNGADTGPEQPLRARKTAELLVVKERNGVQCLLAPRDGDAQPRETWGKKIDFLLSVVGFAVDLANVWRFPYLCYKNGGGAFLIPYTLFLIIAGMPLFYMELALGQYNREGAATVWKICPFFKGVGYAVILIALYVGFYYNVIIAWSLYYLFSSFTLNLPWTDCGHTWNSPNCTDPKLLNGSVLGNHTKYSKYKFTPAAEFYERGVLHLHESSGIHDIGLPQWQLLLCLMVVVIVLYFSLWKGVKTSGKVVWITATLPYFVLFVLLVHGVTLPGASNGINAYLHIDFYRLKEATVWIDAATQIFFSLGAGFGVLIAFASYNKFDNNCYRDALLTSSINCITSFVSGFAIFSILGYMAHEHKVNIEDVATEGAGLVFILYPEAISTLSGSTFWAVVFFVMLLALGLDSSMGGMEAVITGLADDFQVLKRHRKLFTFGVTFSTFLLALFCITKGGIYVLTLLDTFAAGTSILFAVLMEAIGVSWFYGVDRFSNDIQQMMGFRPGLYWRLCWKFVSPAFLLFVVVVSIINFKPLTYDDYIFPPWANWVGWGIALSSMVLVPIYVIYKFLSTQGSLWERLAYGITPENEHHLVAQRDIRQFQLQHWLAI

## Fc1cc(Cl)ccc1OC(c1ccccc1)C1CNCCO1 (stereo not drawn) (as salt: tartrate) [Example 5]
other
  melting point: 92.68 °C

## CCOc1ccccc1O[C@@H](c1ccccc1)[C@@H]1CNCCO1 [(2S)-2-[(1S)-(2-ethoxyphenoxy)(phenyl)methyl]morpholine, reference compound]
[1]; 1 h
  inhibition in vivo at 10 mg/kg: 17%

## Cc1cccc([C@H](Oc2ccc(F)cc2Cl)[C@@H]2CNCCO2)c1 [Example 56, (2S)-2-[(1S)-(2-Chloro-4-fluorophenoxy)-m-tolyl-methyl] morpholine hydrochloride]
[2]; [4]
  Ki: 152 nM
[3]
  Ki: 13.6 nM
[1]; [5]
  inhibition in vivo at 10 mg/kg: 35.6%

## Fc1c(Cl)cccc1O[C@@H](c1ccccc1)[C@@H]1CNCCO1 [Example 80, (2S)-2-[(1S)-(3-chloro-2-fluoro-phenoxy)-phenyl-methyl]-morpholine fumarate salt]
[2]; [4]
  Ki: 127 nM
[3]
  Ki: 4.4 nM
[1]; [5]
  inhibition in vivo at 10 mg/kg: 40%

## Clc1ccc(Cl)c(O[C@@H](c2ccccc2)[C@@H]2CNCCO2)c1 [Example 89, (2S)-2-[(1S)-(2,5-Dichlorophenoxy)phenylmethyl] morpholine fumarate]
[2]; [4]
  Ki: 171 nM
[3]
  Ki: 20.3 nM
[1]; [5]
  inhibition in vivo at 10 mg/kg: 27.8%

## COc1cc(F)ccc1O[C@@H](c1cccc(Cl)c1)[C@@H]1CNCCO1 [Example 52, (2S)-2-[(1S)-(3-Chlorophenyl) (4-fluoro-2-methoxyphenoxy)methyl] morpholine hydrochloride]
[2]; [4]
  Ki: 194 nM
[3]
  Ki: 549 nM
[1]; [5]
  inhibition in vivo at 10 mg/kg: 7%

## COc1cc(Cl)ccc1O[C@@H](c1cccc(F)c1)[C@@H]1CNCCO1 [Example 45, (2S)-2-[(1S)-(4-Chloro-2-methoxyphenoxy)(3-fluorophenyl)methyl] morpholine hydrochloride]
[2]
  Ki: 30 nM
[3]
  Ki: 10.5 nM
[1]; 1 h
  inhibition in vivo at 10 mg/kg: 54.6%

## COc1cc(Cl)ccc1OC(c1ccc(F)cc1)C1CNCCO1 (stereo not drawn) (as salt: hydrochloride) [Example 2]
other
  melting point: 148.11 °C

## COc1cc(Cl)ccc1OC(c1cccc(F)c1)C1CNCCO1 (stereo not drawn) (as salt: camsylate) [Example 3]
other
  melting point: 162.03 °C

## Fc1cccc([C@H](Oc2ccc(F)cc2Cl)[C@@H]2CNCCO2)c1 [Example 37, (2S)-2-[(1S)-(2-chloro-4-fluorophenoxy)-(3-fluorophenyl)methyl]morpholine hydrochloride]
[2]; [4]
  Ki: 52.2 nM
[3]
  Ki: 13.1 nM
[1]; [5]
  inhibition in vivo at 10 mg/kg: 80.3%

## COc1cccc([C@H](Oc2ccc(F)cc2Br)[C@@H]2CNCCO2)c1 [Example 70, (2S)-2-[(1S)-(2-Bromo-4-fluorophenoxy) (3-methoxyphenyl)methyl] morpholine hydrochloride]
[2]; [4]
  Ki: 111 nM
[3]
  Ki: 11.9 nM
[1]; [5]
  inhibition in vivo at 10 mg/kg: 27.3%

## Fc1c(Cl)cccc1OC(c1ccccc1)C1CNCCO1 (stereo not drawn) (as salt: edisylate) [Example 8]
other
  melting point: 189.23 °C

## Cc1ccc(Cl)c(O[C@@H](c2ccccc2)[C@@H]2CNCCO2)c1 [Example 87, (2S)-2-[(1S)-(2-Chloro-5-methylphenoxy)phenylmethyl] morpholine fumarate]
[2]; [4]
  Ki: 184 nM
[3]
  Ki: 18 nM
[1]; [5]
  inhibition in vivo at 10 mg/kg: 9.3%

## COc1cc(F)ccc1O[C@@H](c1cccc(F)c1)[C@@H]1CNCCO1 [Example 46, (2S)-2-[(1S)-(4-Fluoro-2-methoxyphenoxy)(3-fluorophenyl)methyl] morpholine hydrochloride]
[2]; [4]
  Ki: 222 nM
[3]
  Ki: 15.1 nM
[1]; [5]
  inhibition in vivo at 10 mg/kg: 46.1%

## Fc1cccc([C@H](Oc2cc(F)cc(F)c2Cl)[C@@H]2CNCCO2)c1 [Example 48, (2S)-2-[(1S)-(2-Chloro-3,5-difluorophenoxy)(3-fluorophenyl)methyl] morpholine hydrochloride]
[2]; [4]
  Ki: 80 nM
[3]
  Ki: 16.5 nM
[1]; [5]
  inhibition in vivo at 10 mg/kg: 6.5%

## COc1cc(C)ccc1O[C@@H](c1cccc(F)c1)[C@@H]1CNCCO1 [Example 79, (2S)-2-[(1S)-(3-Fluorophenyl)(2-methoxy-4-methylphenoxy)-methyl]morpholine hydrochloride]
[2]; [4]
  Ki: 100 nM
[3]
  Ki: 12.6 nM
[1]; [5]
  inhibition in vivo at 10 mg/kg: 99.5%

## Fc1ccc(O[C@@H](c2ccccn2)[C@@H]2CNCCO2)c(Cl)c1 [Example 105, (2S)-2-[(1S)-(2-chloro-4-fluorophenoxy)(pyridin-2-yl)methyl]morpholine fumarate]
[2]; [4]
  Ki: 621 nM
[3]
  Ki: 3.5 nM
[1]; [5]
  inhibition in vivo at 10 mg/kg: 13.7%

## Fc1cccc([C@H](Oc2cc(F)ccc2Cl)[C@@H]2CNCCO2)c1 [Example 41, (2S)-2-[(1S)-(2-Chloro-5-fluorophenoxy)(3-fluorophenyl)methyl] morpholine hydrochloride]
[2]; [4]
  Ki: 126 nM
[3]
  Ki: 7.3 nM
[1]; [5]
  inhibition in vivo at 10 mg/kg: 21.1%

## Fc1cccc(OC(c2ccccc2)C2CNCCO2)c1F (stereo not drawn) (as salt: fumarate) [Example 6]
other
  melting point: 119.96 °C

## Fc1ccc(O[C@@H](c2cccc(Cl)c2)[C@@H]2CNCCO2)c(Cl)c1 [Example 102, (2S)-2-[(1S)-(2-Chloro-4-fluorophenoxy) (3-chlorophenyl)methyl] morpholine fumarate]
[2]; [4]
  Ki: 222 nM
[3]
  Ki: 48.3 nM
[1]; [5]
  inhibition in vivo at 10 mg/kg: 59.5%

## COc1cc(Cl)c(Cl)cc1O[C@@H](c1ccccc1)[C@@H]1CNCCO1 [Example 93, (2S)-2-[(1S)-(4,5-Dichloro-2-methoxyphenoxy)phenylmethyl] morpholine fumarate]
[2]; [4]
  Ki: 70 nM
[3]
  Ki: 164 nM
[1]; [5]
  inhibition in vivo at 10 mg/kg: 39%

## COc1cccc([C@H](Oc2ccc(C)cc2OC)[C@@H]2CNCCO2)c1 [Example 62, (2S)-2-[(1S)-(2-Methoxy-4-methylphenoxy) (3-methoxyphenyl)methyl] morpholine hydrochloride]
[2]; [4]
  Ki: 153 nM
[3]
  Ki: 15.3 nM
[1]; [5]
  inhibition in vivo at 10 mg/kg: 40.5%

## FC(F)Oc1cc(Cl)ccc1OC(c1ccccc1)C1CNCCO1 (stereo not drawn) (as salt: citrate) [Example 4]
other
  melting point: 119.29 °C

## COc1cc(Cl)ccc1O[C@@H](c1cccc(Cl)c1)[C@@H]1CNCCO1 [Example 100, (2S)-2-[(1S)-(4-Chloro-2-methoxyphenoxy) (3-chloro phenyl)methyl] morpholine fumarate]
[2]; [4]
  Ki: 32.9 nM
[3]
  Ki: 33 nM

## c1ccc(C(Oc2cccc3cccnc23)C2CNCCO2)cc1 (stereo not drawn) (as salt: succinate) [Example 9]
other
  melting point: 98.24 °C

## Fc1ccc([C@H](Oc2ccc(F)cc2Cl)[C@@H]2CNCCO2)cc1 [Example 74, (2S)-2-[(1S)-(2-Chloro-4-fluorophenoxy) (4-fluorophenyl)methyl] morpholine hydrochloride]
[2]; [4]
  Ki: 138 nM
[3]
  Ki: 18.6 nM

## COc1cc(Cl)ccc1O[C@@H](c1ccc(Cl)cc1)[C@@H]1CNCCO1 [Example 73, (2S)-2-[(1S)-(4-Chloro-2-methoxyphenoxy) (4-chlorophenyl)methyl] morpholine hydrochloride]
[2]; [4]
  Ki: 14 nM
[3]
  Ki: 75.7 nM

## COc1cc(C)ccc1O[C@@H](c1cccc(Cl)c1)[C@@H]1CNCCO1 [Example 101, (2S)-2-[(1S)-(3-Chlorophenyl) (2-methoxy-4-methyl phenoxy)methyl] morpholine fumarate]
[2]; [4]
  Ki: 67.1 nM
[3]
  Ki: 19.4 nM

## COc1cc(C)ccc1O[C@@H](c1ccccc1)[C@@H]1CNCCO1 [Example 40, (2S)-2-[(1S)-(2-Methoxy-4-methylphenoxy)phenylmethyl] morpholine hydrochloride]
[2]; [4]
  Ki: 158 nM
[3]
  Ki: 4.3 nM
